One experiment has as its system tankyrase 1/2. The experiment is described as follows: Cellular inhibition of Tankyrase: increase of Axin2 level in DLD1 cells (Luminex). It counts as cell-based. The settings on record: 24 hours, read-out: EC50 tankyrase 1/2 (cell assay). In short, it runs like this: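 DLD1 colon carcinoma cells treated 24 h with seven-step serial dilutions in triplicate (0.3% DMSO final). Axin2 in cleared lysates captured on anti-Axin2 beads, detected with polyclonal anti-Axin2 plus PE secondary, and quantified by Luminex. EC50 from data normalized to solvent control; IWR-2 (3E-06 M) marks maximal Axin2 increase.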

Experiment [1] concerns the target T1, GST-tagged Tankyrase-1 (1023-1327 aa) (Homo sapiens, UniProt O95271).
T1 construct: GST-tagged Tankyrase-1 (1023-1327 aa)
The experiment is described as follows: Tankyrase 1 autoparsylation assay (HTRF enzyme assay). In kind it is biochemical. In short, it runs like this:
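~250 nM GST-tagged enzyme with 5 μM biotin-NAD in HEPES/Mg/DTT buffer pH 7.7, 10 compound concentrations, 90 min at 30 °C; EDTA stop. Eu-anti-GST/streptavidin-Xlent HTRF read (665/615 ratio) after 1 h RT. IC50 relative to inhibitor-free reaction and 5 μM XAV-939 as zero.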

In another experiment the target is T2, His-tagged Parp-1 (Homo sapiens, UniProt P09874).
T2 construct: purchased Enzo Life Sciences GmbH
Put plainly: PARP-1 autoparsylation assay (HTRF). It counts as biochemical. To be noted: PARP-1 autoparsylation HTRF assay. The text has this:
Description of the PARP1 Assay
Biochemical Activity Testing of PARP-1: Autoparsylation Assay
The autoparsylation assay is run in two steps: the enzymatic reaction in which
His-tagged Parp-1 transfers biotinylated ADP-ribose/ADP-ribose to itself from biotinylated NAD/NAD as co-substrate and the detection reaction where a time resolved FRET between cryptate labelled anti-His antibody bound to the His tag of the enzyme and Xlent® labelled-streptavidin bound the biotin-parsylation residue is analysed. The autoparsylation activity is detectable directly via the increase in HTRF signal.
The autoparsylation assay is performed as 384-well HTRF® (Cisbio, Codolet, France) assay format in Greiner low volume nb 384-well microtiter plates. 35 nM His-tagged Parp-1 (human, recombinant, Enzo Life Sciences GmbH, Lörrach, Germany) and a mixture of 125 nM bio-NAD (Biolog, Life science Inst., Bremen, Germany) and 800 nM NAD as co-substrate are incubated in a total volume of 6 μl (100 mM Tris/HCl, 4 mM Mg-chloride, 0.01% IGEPAL® CA630, 1 mM DTT, 0.5% DMSO, pH 8, 13 ng/μl activated DNA (BPS Bioscience, San Diego, US)) in the absence or presence of the test compound (10 dilution concentrations) for 150 min at 23° C. The reaction is stopped by the addition of 4 μl of the Stop/detection solution (70 nM SA-Xlent® (Cisbio, Codolet, France), 2.5 nM Anti-His-K® (Eu-labelled anti-His, Cisbio, Codolet, France) in 50 mM HEPES, 400 mM KF, 0.1% BSA, 20 mM EDTA, pH 7.0). After 1 h incubation at room temperature the HTRF is measured with an Envision multimode reader (Perkin Elmer LAS Germany GmbH) at excitation wavelength 340 nm (laser mode) and emission wavelengths 615 nm and 665 nm. The ratio of the emission signals is determined. The full value used is the inhibitor-free reaction. The pharmacological zero value used is Olaparib (LClabs, Woburn, US) in a final concentration of 1 μM. The inhibitory values (IC50) are determined using either the program Symyx Assay Explorer® or Condosseo® from GeneData.

Structures are written as SMILES.

T1 sequence (O95271 1023-1327): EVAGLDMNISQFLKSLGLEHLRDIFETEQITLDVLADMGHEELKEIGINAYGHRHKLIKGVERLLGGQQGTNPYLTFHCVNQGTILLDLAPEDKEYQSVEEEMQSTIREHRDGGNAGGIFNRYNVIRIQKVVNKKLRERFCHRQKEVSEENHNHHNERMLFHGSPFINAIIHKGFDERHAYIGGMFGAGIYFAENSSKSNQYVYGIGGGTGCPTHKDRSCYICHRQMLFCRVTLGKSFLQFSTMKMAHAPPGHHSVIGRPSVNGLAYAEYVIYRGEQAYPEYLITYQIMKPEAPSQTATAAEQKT
T2 sequence (P09874 whole entry): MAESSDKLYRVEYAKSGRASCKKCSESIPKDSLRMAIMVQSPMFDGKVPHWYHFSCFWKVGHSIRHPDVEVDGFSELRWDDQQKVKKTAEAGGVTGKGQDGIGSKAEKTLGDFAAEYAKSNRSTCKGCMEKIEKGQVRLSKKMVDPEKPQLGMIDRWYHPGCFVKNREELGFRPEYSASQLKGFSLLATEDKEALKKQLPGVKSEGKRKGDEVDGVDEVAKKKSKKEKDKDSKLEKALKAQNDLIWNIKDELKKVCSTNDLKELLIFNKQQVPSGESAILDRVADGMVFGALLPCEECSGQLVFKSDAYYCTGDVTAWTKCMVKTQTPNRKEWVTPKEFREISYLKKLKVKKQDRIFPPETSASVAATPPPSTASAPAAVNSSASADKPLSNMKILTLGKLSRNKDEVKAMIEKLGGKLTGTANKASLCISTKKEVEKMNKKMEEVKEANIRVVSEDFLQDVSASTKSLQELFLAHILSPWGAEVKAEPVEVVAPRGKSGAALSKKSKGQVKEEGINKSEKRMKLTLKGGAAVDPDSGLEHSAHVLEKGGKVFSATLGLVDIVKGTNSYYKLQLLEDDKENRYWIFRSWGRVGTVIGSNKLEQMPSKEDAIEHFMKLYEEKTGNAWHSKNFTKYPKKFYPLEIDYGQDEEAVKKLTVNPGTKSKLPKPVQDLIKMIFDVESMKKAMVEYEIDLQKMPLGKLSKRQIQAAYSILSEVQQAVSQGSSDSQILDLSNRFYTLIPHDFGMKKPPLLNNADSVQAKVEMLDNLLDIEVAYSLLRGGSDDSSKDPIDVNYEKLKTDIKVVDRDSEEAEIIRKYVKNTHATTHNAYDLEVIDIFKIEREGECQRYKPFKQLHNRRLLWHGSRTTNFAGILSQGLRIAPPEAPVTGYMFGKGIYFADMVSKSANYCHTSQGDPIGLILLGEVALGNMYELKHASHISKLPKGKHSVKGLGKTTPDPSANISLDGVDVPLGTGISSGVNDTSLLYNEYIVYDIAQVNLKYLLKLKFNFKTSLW

On to `CC(C)(N)c1ccc(-c2cn3cc(F)cc3c(=O)[nH]2)cc1` [Compound A72, 3-[4-(1-amino-1-methyl-ethyl)-phenyl]-7-fluoro-2H-pyrrolo[1,2-a]pyrazin-1-one], for which the EC50 in the experiment with tankyrase 1/2 was 3000 to 50000 nM. Also, the IC50 (in experiment [1]; against His-tagged Parp-1) was below 300 nM throughout.

As to `O=c1[nH]c(-c2ccc(C3CCNCC3)cc2)cn2cccc12` [Compound A75, 3-(4-piperidin-4-yl-phenyl)-2H-pyrrolo[1,2-a]pyrazin-1-one], the EC50 in the experiment with tankyrase 1/2 was in the range of 300 to 3000 nM. The IC50 is below 300 nM in experiment [1] and 3000 to 50000 nM at His-tagged Parp-1.

Turning to `CC1(c2ccc(-c3cn4cc(F)cc4c(=O)[nH]3)cc2)CCCO1` (stereo not drawn) [Compound A73, 7-fluoro-3-[4-(2-methyl-tetrahydro-furan-2-yl)-phenyl]-2H-pyrrolo[1,2-a]pyrazin-1-one], the EC50 with tankyrase 1/2 is below 300 nM. For the same compound, the results for the IC50 (in experiment [1]; on His-tagged Parp-1) were below 300 nM and 300 to 3000 nM, respectively.

With `CC(C)(OCCO)c1ccc(-c2cn3cc(F)cc3c(=O)[nH]2)cc1` [Compound A70, 7-fluoro-3-{4-[1-(2-hydroxy-ethoxy)-1-methyl-ethyl]-phenyl}-2H-pyrrolo[1,2-a]pyrazin-1-one], the EC50 in the experiment on tankyrase 1/2 was below 300 nM. Further, the IC50 in experiment [1] was below 300 nM; against His-tagged Parp-1, 300 to 3000 nM.

In the case of `O=c1[nH]c(-c2ccc(C3(O)CCC3)cc2)cn2cccc12` [Compound A111], the EC50 in the experiment with tankyrase 1/2 was below 300 nM. Moreover, the results for the IC50 (in experiment [1]; against His-tagged Parp-1) were below 300 nM and 300 to 3000 nM, respectively.

For `CC(C)(F)c1ccc(-c2cn3cc(F)cc3c(=O)[nH]2)cc1` [Compound A63, 7-fluoro-3-[4-(1-fluoro-1-methyl-ethyl)-phenyl]-2H-pyrrolo[1,2-a]pyrazin-1-one], in the experiment with tankyrase 1/2, the EC50 is below 300 nM. The IC50 was below 300 nM in experiment [1] and 300 to 3000 nM against His-tagged Parp-1.

For the compound `COCCOC(C)(C)c1ccc(-c2cn3cc(F)cc3c(=O)[nH]2)cc1` [Compound A71, 7-fluoro-3-{4-[1-(2-methoxy-ethoxy)-1-methyl-ethyl]-phenyl}-2H-pyrrolo[1,2-a]pyrazin-1-one], the EC50 in the experiment on tankyrase 1/2 was 300 to 3000 nM. For the same compound, the figures for the IC50 (in experiment [1]; at His-tagged Parp-1) were below 300 nM and 3000 to 50000 nM, respectively.

In the case of `Cc1cc2c(=O)[nH]c(-c3ccc(C(C)(C)O)cc3)cn2n1` [Compound A46, 6-[4-(1-hydroxy-1-methyl-ethyl)phenyl]-2-methyl-5H-pyrazolo[1,5-a]pyrazin-4-one], the EC50 in the experiment with tankyrase 1/2 lay in the range of 300 to 3000 nM. The IC50 in experiment [1] is below 300 nM; at His-tagged Parp-1, 300 to 3000 nM.

`O=c1[nH]c(-c2ccc(C3CCNC3)cc2)cn2cccc12` (stereo not drawn) [Compound A76, 3-(4-Pyrrolidin-3-yl-phenyl)-2H-pyrrolo[1,2-a]pyrazin-1-one]: in the experiment on tankyrase 1/2, the EC50 was 300 to 3000 nM. The figures for the IC50 (in experiment [1]; at His-tagged Parp-1) were below 300 nM and 300 to 3000 nM, respectively.

For `Cn1cc(-c2ccc(-c3cn4cccc4c(=O)[nH]3)cc2)cn1` [Compound A25, 3-[4-(1-methyl-1H-pyrazol-4-yl)-phenyl]-2H-pyrrolo[1,2-a]pyrazin-1-one], the EC50 with tankyrase 1/2 is below 300 nM. Also, the IC50 in experiment [1] is below 300 nM; against His-tagged Parp-1, 3000 to 50000 nM.

Regarding `Cc1ccc(-c2cn3cccc3c(=O)[nH]2)cc1` [Compound A12, 3-p-tolyl-2H-pyrrolo[1,2-a]pyrazin-1-one], the EC50 in the experiment with tankyrase 1/2 lay within 300 to 3000 nM. For the same compound, the IC50 is below 300 nM in experiment [1] and 300 to 3000 nM against His-tagged Parp-1.

With `Cc1cc2c(=O)[nH]c(-c3ccc(C(C)(C)O)cc3)cn2c1` [Compound A56, 3-[4-(1-hydroxy-1-methyl-ethyl)-phenyl]-7-methyl-2H-pyrrolo[1,2-a]pyrazin-1-one], in the experiment with tankyrase 1/2, the EC50 is below 300 nM. For the same compound, the IC50 in experiment [1] was below 300 nM; against His-tagged Parp-1, 300 to 3000 nM.

As to `CC(C)(O)c1ccc(-c2cn3cccc3c(=O)[nH]2)cc1` [Compound A29, 3-[4-(1-hydroxy-1-methyl-ethyl)-phenyl]-2H-pyrrolo[1,2-a]pyrazin-1-one], in the experiment with tankyrase 1/2, the EC50 is below 300 nM. In addition, the IC50 was below 300 nM in experiment [1] and 300 to 3000 nM on His-tagged Parp-1.

Turning to `CC(C)(C)c1ccc(-c2cn3cccc3c(=O)[nH]2)cc1` [Compound A11, 3-(4-tert-butyl-phenyl)-2H-pyrrolo[1,2-a]pyrazin-1-one], the EC50 in the experiment with tankyrase 1/2 is below 300 nM. Also, the IC50 is below 300 nM in experiment [1] and 3000 to 50000 nM on His-tagged Parp-1.

As for `CN1CCC(c2ccc(-c3cn4cccc4c(=O)[nH]3)cc2)CC1` [Compound A79, 3-[4-(1-methyl-piperidin-4-yl)-phenyl]-2H-pyrrolo[1,2-a]pyrazin-1-one], the EC50 with tankyrase 1/2 lay within 3000 to 50000 nM. Also, the half-inhibitory concentration (IC50) in experiment [1] was below 300 nM; on His-tagged Parp-1 it was 3000 to 50000 nM.

Turning to `CC(C)(C)c1ccc(-c2cn3cc(F)cc3c(=O)[nH]2)cc1` [Compound A35, 3-(4-tert-butyl-phenyl)-7-fluoro-2H-pyrrolo[1,2-a]pyrazin-1-one], the EC50 in the experiment on tankyrase 1/2 is below 300 nM. The IC50 in experiment [1] is below 300 nM; against His-tagged Parp-1, 3000 to 50000 nM.

Consider `CN1CCC(c2ccc(-c3cn4cccc4c(=O)[nH]3)cc2)C1` (stereo not drawn) [Compound A80, 3-[4-(1-methyl-pyrrolidin-3-yl)-phenyl]-2H-pyrrolo[1,2-a]pyrazin-1-one], for which the EC50 in the experiment with tankyrase 1/2 lay in the range of 3000 to 50000 nM. For the same compound, the IC50 in experiment [1] was in the range of 300 to 3000 nM; against His-tagged Parp-1, 3000 to 50000 nM.

As for `CC(C)(O)c1ccc(-c2cn3cc(Cl)cc3c(=O)[nH]2)cc1` [Compound A60, 7-chloro-3-[4-(1-hydroxy-1-methyl-ethyl)-phenyl]-2H-pyrrolo[1,2-a]pyrazin-1-one], in the experiment on tankyrase 1/2, the EC50 is below 300 nM. The IC50 in experiment [1] is below 300 nM; against His-tagged Parp-1, 300 to 3000 nM.

As for `CCC(O)(CC)c1ccc(-c2cn3cc(F)cc3c(=O)[nH]2)cc1` [Compound A61, 3-[4-(1-ethyl-1-hydroxy-propyl)-phenyl]-7-fluoro-2H-pyrrolo[1,2-a]pyrazin-1-one], in the experiment with tankyrase 1/2, the EC50 was below 300 nM. Further, the IC50 is below 300 nM in experiment [1] and 300 to 3000 nM against His-tagged Parp-1.

`CC(C)(O)c1ccc(-c2cn3cc(F)cc3c(=O)[nH]2)cc1` [Compound A59, 7-fluoro-3-[4-(1-hydroxy-1-methyl-ethyl)-phenyl]-2H-pyrrolo[1,2-a]pyrazin-1-one]: the EC50 with tankyrase 1/2 was below 300 nM. Also, the IC50 in experiment [1] was below 300 nM; against His-tagged Parp-1 it was 300 to 3000 nM.

For orientation: IC50 means the concentration that inhibits the measured activity by half. A lower IC50 goes with higher potency.

Values taken from patent publication US9120805B2, “Substituted pyrrolo[1,2-A]pyrazin-1-ones and pyrazolo[1,5-A]pyrazin-4-ones as inhibitors of tankyrase and poly(ADP-ribose)polymerase activity” (Merck Patent GmbH, priority 2012, dated 2015).
